Test results taken from patent US11026958B2, “Substituted 6-membered aryl or heteroaryl allosteric modulators of nicotinic acetylcholine receptors” (Merck Sharp & Dohme Corp., priority 2016, dated 2021).
Like-named read-outs stand apart in the source and are kept apart here.

Molecular target: human α7 nAChR (Homo sapiens (Human), UniProt P36544)
Test: Automated patch-clamp electrophysiology functional assay (Assay A), IonFlux HT
Assay type: cell-based
Details: HEK cell line stably expressing human RIC-3 and human α7, whole-cell population patch, 40 μM acetylcholine
Procedure: The α7 nAChR positive allosteric modulator (PAM) activity of the present compounds may be tested using assays known in the art. The α7 nAChR PAMs described herein have activities in an automated patch-clamp electrophysiology functional assay as described in the examples. The assay was performed using the IonFlux HT in a whole-cell, population patch configuration. See Golden et al. Assay Drug Dev. Technol. (2011) 9:608-619. The compounds were assessed for their ability to modulate the function of the human α7 nAChR stably expressed in a HEK cell line both in the presence, and in the absence of the natural α7 agonist acetylcholine. By performing a series of such measurements at different concentrations, the effective concentration of the α7 nAChR PAMs (EC50) was determined. See Spencer et al. Assay Drug Dev. Technol. (2012) 10:313-324.
Automated patch-clamp electrophysiology was performed using the IonFlux HT (Fluxion Biosciences Inc., San Francisco, Calif.) in the whole-cell, population patch configuration. Test compounds were assessed for their ability to modulate the function of the α7 nicotinic acetylcholine receptor both in the presence, and in the absence of the natural α7 agonist acetylcholine. A HEK cell line stably expressing both human RIC-3 and human α7 (PrecisION hnAChR α7/RIC-3, Eurofins Pharma, St. Charles, Mo.) was cultured in 175 cm^2 triple-layer tissue culture flasks to no more than 90% confluency in DMEM/F-12 growth media supplemented with 10% heat-inactivated fetal bovine serum, 1% non-essential amino acids, 0.625 μg/mL Puromycin, and 400 μg/mL Geneticin. Immediately prior to assay, cells were detached by first aspirating growth media, rinsing with Dulbecco's phosphate buffered saline, and then adding 10 mL of Accutase (Innovative Cell Technologies, San Diego, Calif.) to the flask and then incubating at 37° C. for 5 minutes. Detached cells were then recovered by the addition of 40 mL of CHO-serum-free media supplemented with 25 mM HEPES, and rocked gently in a 50 mL conical tube for 20 minutes prior to patch-clamp assay. After recovery, cells were pelleted by centrifugation at 1,000 RPM for 1 minute in a compact bench top centrifuge; recovery media was aspirated and cells were resuspended in external recording solution (150 mM NaCl, 5 mM KCl, 2 mM CaCl2, 1 mM MgCl2, 10 mM HEPES, 12 mM dextrose) to a density of 5.0×10^6 cells/mL. The cell suspension was added to the cell inlet wells on an IonFlux HT population patch plate which had previously been rinsed and primed with deionized H2O. Test compounds were serially diluted in DMSO and then resuspended to the final test concentration in external recording solution, with, or without 40 μM acetylcholine added to the external recording solution; test compounds were then transferred to the IonFlux HT population patch plate. Internal recording solution (110 mM TrisPO4, 28 mM TrisBase, 0.1 mM CaCl2, 2 mM MgCl2, 11 mM EGTA, 4 mM MgATP) was added to the internal recording solution inlet wells on the IonFlux HT patch plate previously loaded with cells and test compounds, and the plate loaded into the IonFlux HT instrument. A protocol was executed on the IonFlux HT to trap the cells, break into the cells, and establish the whole-cell recording configuration; cells were voltage-clamped at a holding potential of −60 mV for the duration of the experiment, all experiments were conducted at room temperature, and the IonFlux HT injection pressure was 8 psi for solution applications. Upon establishing the whole-cell configuration, external recording solution was perfused into the recording chambers for 120 seconds and then 40 μM acetylcholine was applied for 1 second and immediately washed off with external recording solution for 60 seconds. The 40 μM acetylcholine-evoked α7 current served as the current response to which subsequent test compound effects, in the presence, or in the absence of 40 μM acetylcholine would be quantified relative to. […]

Chain of human α7 nAChR (P36544 23-502): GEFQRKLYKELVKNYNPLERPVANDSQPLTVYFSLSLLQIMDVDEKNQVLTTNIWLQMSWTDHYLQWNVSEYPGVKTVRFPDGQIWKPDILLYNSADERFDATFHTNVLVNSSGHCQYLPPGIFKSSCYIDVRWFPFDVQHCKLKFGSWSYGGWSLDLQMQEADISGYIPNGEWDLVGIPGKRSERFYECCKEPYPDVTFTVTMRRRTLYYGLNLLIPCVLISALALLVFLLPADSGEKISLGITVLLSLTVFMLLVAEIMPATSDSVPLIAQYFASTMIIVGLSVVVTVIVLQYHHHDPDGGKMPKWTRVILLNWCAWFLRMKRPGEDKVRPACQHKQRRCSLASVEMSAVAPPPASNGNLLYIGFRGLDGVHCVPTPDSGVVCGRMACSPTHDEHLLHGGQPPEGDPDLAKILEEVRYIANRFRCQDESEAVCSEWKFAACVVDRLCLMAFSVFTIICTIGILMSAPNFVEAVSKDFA

Row | Compound | EC50 (read-out: α7 nAChR EC50) | EC50 (read-out: α7 nAChR Potency)
1 | CC(C)(C#N)c1ccc([C@@H]2C[C@H]2c2ccc(S(N)(=O)=O)cc2)cn1 (racemic) [Example G5, 4-{trans-2-[6-(2-Cyanopropan-2-yl)pyridin-3-yl]cyclopropyl}benzenesulfonamide] | 3400 nM | 500 to 5000 nM
2 | NS(=O)(=O)c1ccc([C@@H]2C[C@H]2c2ccnc(N3CCOCC3)n2)cc1 (relative stereo) [Example 2, 4-{trans-2-[2-(Morpholin-4-yl)pyrimidin-4-yl]cyclopropyl}benzenesulfonamide] |  | 500 to 5000 nM
3 | NS(=O)(=O)c1ccc([C@@H]2C[C@H]2c2ccc(N3CCCC3)nc2)cc1 (relative stereo) [Example 6, 4-{trans-2-[6-(Pyrrolidin-1-yl)pyridin-3-yl]cyclopropyl}benzenesulfonamide] | 720 nM | 500 to 5000 nM
4 | Cc1nc(-c2cccc([C@@H]3C[C@H]3c3ccc(S(N)(=O)=O)cc3)c2)no1 (relative stereo) [Example 7, 4-{trans-2-[3-(5-Methyl-1,2,4-oxadiazol-3-yl)phenyl]cyclopropyl}benzenesulfonamide] | 320 nM | 100 to 500 nM
5 | CC(C)c1cccc(C2CC2c2ccc(S(N)(=O)=O)cc2)n1 (single isomer, unassigned) [Example 1, 4-{trans-2-[6-(Propan-2-yl)pyridin-2-yl]cyclopropyl}benzenesulfonamide] | 500 nM | 100 to 500 nM
6 | NS(=O)(=O)c1ccc(C2CC2c2cccc(C3CCCC3)n2)cc1 (single isomer, unassigned) [Example 3, 4-[trans-2-(6-Cyclopentylpyridin-2-yl)cyclopropyl]benzenesulfonamide] | 1500 nM | 500 to 5000 nM
7 | NS(=O)(=O)c1ccc(C2CC2c2ccc(C3CCCC3)cn2)cc1 (single isomer, unassigned) [Example 4, 4-[trans-2-(5-Cyclopentylpyridin-2-yl)cyclopropyl]benzenesulfonamide] | 1000 nM | 500 to 5000 nM
8 | CC(C)c1ccnc(C2CC2c2ccc(S(N)(=O)=O)cc2)n1 (single isomer, unassigned) [Example 5, 4-{trans-2-[4-(Propan-2-yl)pyrimidin-2-yl]cyclopropyl}benzenesulfonamide] | 410 nM | 100 to 500 nM
9 | CC(C)c1cc(C2CC2c2ccc(S(N)(=O)=O)cc2)ccn1 (single isomer, unassigned) [Example 8, 4-{trans-2-[2-(Propan-2-yl)pyridin-4-yl]cyclopropyl}benzenesulfonamide] | 1200 nM | 500 to 5000 nM
10 | NS(=O)(=O)c1ccc(C2CC2c2nccc(-c3cccc(F)c3)n2)cc1 (single isomer, unassigned) [Example 10, 4-{trans-2-[4-(3-Fluorophenyl)pyrimidin-2-yl]cyclopropyl}benzenesulfonamide] | 210 nM | 100 to 500 nM
11 | NS(=O)(=O)c1ccc(C2CC2c2nccc(-c3cncc(C(F)(F)F)c3)n2)cc1 (single isomer, unassigned) [Example 11, 4-(trans-2-{4-[5-(Trifluoromethyl)pyridin-3-yl]pyrimidin-2-yl}cyclopropyl)benzenesulfonamide] | 240 nM | 100 to 500 nM
12 | CC(C)c1cccc(C2CC2c2ccc(S(N)(=O)=O)cc2)n1 (single isomer, unassigned) [Example A1, 4-{trans-2-[6-(Propan-2-yl)pyridin-2-yl]cyclopropyl}benzenesulfonamide] |  | 500 to 5000 nM
13 | CC(C)c1ccnc(C2CC2c2ccc(S(N)(=O)=O)cc2)c1 (single isomer, unassigned) [Example A2, 4-{trans-2-[4-(Propan-2-yl)pyridin-2-yl]cyclopropyl}benzenesulfonamide] | 410 nM | 100 to 500 nM
14 | CC(C)c1ccc(C2CC2c2ccc(S(N)(=O)=O)cc2)nc1 (single isomer, unassigned) [Example A3, 4-{trans-2-[5-(Propan-2-yl)pyridin-2-yl]cyclopropyl}benzenesulfonamide] | 550 nM | 500 to 5000 nM
15 | NS(=O)(=O)c1ccc([C@@H]2C[C@H]2c2cccc(C3CCCC3)n2)cc1 (single isomer, unassigned) [Example A4, 4-[trans-2-(6-Cyclopentylpyridin-2-yl)cyclopropyl]benzenesulfonamide] |  | 500 to 5000 nM
16 | CC(C)c1ccc(C2CC2c2ccc(S(N)(=O)=O)cc2)nc1 (single isomer, unassigned) [Example A5, 4-{trans-2-[5-(Propan-2-yl)pyridin-2-yl]cyclopropyl}benzenesulfonamide] |  | 500 to 5000 nM
17 | CC(C)c1cnc(C2CC2c2ccc(S(N)(=O)=O)cc2)nc1 (single isomer, unassigned) [Example C1, 4-{trans-2-[5-(Propan-2-yl)pyrimidin-2-yl]cyclopropyl}benzenesulfonamide] | 280 nM | 100 to 500 nM
18 | NS(=O)(=O)c1ccc([C@@H]2C[C@H]2c2nccc(-c3cccc(F)c3)n2)cc1 (single isomer, unassigned) [Example C4, 4-{trans-2-[4-(3-fluorophenyl)pyrimidin-2-yl]cyclopropyl}benzenesulfonamide] | 1900 nM | 500 to 5000 nM
19 | NS(=O)(=O)c1ccc([C@@H]2C[C@H]2c2nccc(-c3cncc(C(F)(F)F)c3)n2)cc1 (single isomer, unassigned) [Example C5, 4-(trans-2-{4-[5-(trifluoromethyl)pyridin-3-yl]pyrimidin-2-yl}cyclopropyl)benzenesulfonamide] | 3300 nM | 500 to 5000 nM
20 | CC1(C)[C@H](c2ccc(S(N)(=O)=O)cc2)[C@H]1c1nccc(-c2cncc(C(F)(F)F)c2)n1 [Example 9, 4-[(1R,3R)-2,2-Dimethyl-3-{4-[5-(trifluoromethyl)pyridin-3-yl]pyrimidin-2-yl}cyclopropyl]benzenesulfonamide] | 1400 nM | 500 to 5000 nM
21 | CC(C)c1ccc(C2C(c3ccc(S(N)(=O)=O)cc3)C2[Si](C)(C)C)cn1 (stereo not drawn) [Example B1, 4-{2-[6-(Propan-2-yl)pyridin-3-yl]-3-(trimethylsilyl)cyclopropyl}benzenesulfonamide] | 1600 nM | 500 to 5000 nM
22 | NS(=O)(=O)c1ccc([C@H]2[C@H](c3nccc(-c4cccc(F)c4)n3)C2(F)F)cc1 [Example C6, 4-{(1R,3R)-2,2-Difluoro-3-[4-(3-fluorophenyl)pyrimidin-2-yl]cyclopropyl}benzenesulfonamide] | 1600 nM | 500 to 5000 nM
23 | tert-Butyl 4-{4-[trans-2-(4-sulfamoylphenyl)cyclopropyl]pyrimidin-2-yl}piperazine-1-carboxylate [Example D4] | 720 nM | 500 to 5000 nM
